Common to all, as to assay type: biochemical
The target in experiment [1] is T1, fibrinogen in human plasma (Homo sapiens, UniProt P02671+P02675+P02679).
T1 construct: 200 μl of 256% of norm active fibrinogen in P-Pool; from tissue; host or cells: pooled citrated human patient plasma (P-Pool / Fbgen-Pool)
T1 sequence (P02671 20-629 isoform P02671-2 limits assumed): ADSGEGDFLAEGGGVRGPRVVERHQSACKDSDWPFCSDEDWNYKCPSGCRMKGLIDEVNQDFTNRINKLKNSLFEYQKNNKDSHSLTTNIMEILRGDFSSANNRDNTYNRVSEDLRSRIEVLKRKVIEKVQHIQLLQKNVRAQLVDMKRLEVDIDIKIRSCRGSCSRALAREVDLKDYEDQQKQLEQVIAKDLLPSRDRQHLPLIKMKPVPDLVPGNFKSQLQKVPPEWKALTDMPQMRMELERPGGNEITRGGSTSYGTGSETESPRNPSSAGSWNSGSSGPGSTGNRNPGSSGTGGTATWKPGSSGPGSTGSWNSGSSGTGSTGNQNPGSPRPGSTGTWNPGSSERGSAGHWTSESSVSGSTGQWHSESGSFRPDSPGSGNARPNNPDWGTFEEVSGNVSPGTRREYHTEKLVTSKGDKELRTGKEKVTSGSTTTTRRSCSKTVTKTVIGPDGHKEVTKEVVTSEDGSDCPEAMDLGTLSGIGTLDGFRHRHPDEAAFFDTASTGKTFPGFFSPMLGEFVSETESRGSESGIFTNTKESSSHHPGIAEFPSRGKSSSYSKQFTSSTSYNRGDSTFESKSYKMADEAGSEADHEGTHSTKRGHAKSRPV
T1 sequence (P02675 31-491): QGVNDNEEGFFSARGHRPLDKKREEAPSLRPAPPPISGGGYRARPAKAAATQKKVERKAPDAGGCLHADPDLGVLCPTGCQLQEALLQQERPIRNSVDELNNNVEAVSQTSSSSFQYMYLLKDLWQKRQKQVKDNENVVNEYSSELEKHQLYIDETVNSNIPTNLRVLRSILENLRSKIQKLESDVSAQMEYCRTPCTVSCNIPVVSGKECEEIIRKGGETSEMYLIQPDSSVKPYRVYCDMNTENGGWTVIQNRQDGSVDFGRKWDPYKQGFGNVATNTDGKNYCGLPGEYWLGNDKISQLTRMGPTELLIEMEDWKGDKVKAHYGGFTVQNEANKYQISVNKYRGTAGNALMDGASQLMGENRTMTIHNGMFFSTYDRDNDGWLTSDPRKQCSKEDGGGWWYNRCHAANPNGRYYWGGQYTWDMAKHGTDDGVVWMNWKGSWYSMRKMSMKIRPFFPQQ
T1 sequence (P02679 27-437 isoform P02679-2 limits assumed): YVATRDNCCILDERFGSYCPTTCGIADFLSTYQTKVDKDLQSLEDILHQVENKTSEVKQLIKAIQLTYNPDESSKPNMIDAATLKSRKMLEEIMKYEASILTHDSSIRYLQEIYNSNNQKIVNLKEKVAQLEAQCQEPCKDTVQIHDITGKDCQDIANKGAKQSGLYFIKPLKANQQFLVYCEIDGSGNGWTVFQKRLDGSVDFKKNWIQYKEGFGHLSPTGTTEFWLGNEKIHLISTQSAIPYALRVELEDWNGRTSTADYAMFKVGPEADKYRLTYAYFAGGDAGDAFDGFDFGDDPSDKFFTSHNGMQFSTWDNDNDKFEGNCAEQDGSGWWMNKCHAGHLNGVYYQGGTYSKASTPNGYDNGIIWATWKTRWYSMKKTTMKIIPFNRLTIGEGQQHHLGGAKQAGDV
The experiment is described as follows: Inactivation of fibrinogen by vancomycin or chloramine-T (FIFTA read-out). Here is the method: 200 μl of 256% of norm active fibrinogen in P-Pool were incubated with 25 μl 0-100 mM vancomycin or 0-100 mM chloramine-T® in aqua dest. for 15 min (37° C.). 50 μl samples of these reaction mixtures were withdrawn and incubated with 100 μl 200 mIU/ml thrombin, 400 μg/ml Polybrene®, 6% BSA-PBS. The results were standardized by simultaneous analysis of 144% of norm active fibrinogen in P-Pool.

Experiment [2] has as its target T2, fibrinogen (Homo sapiens, UniProt P02671+P02675+P02679).
T2 construct: pooled patient plasma (P-Pool, n=32 single plasmas); from tissue; host or cells: pooled citrated patient plasma (P-Pool, Fbgen-Pool-Plasma)
T2 sequence (P02671 20-644 isoform P02671-2 limits assumed): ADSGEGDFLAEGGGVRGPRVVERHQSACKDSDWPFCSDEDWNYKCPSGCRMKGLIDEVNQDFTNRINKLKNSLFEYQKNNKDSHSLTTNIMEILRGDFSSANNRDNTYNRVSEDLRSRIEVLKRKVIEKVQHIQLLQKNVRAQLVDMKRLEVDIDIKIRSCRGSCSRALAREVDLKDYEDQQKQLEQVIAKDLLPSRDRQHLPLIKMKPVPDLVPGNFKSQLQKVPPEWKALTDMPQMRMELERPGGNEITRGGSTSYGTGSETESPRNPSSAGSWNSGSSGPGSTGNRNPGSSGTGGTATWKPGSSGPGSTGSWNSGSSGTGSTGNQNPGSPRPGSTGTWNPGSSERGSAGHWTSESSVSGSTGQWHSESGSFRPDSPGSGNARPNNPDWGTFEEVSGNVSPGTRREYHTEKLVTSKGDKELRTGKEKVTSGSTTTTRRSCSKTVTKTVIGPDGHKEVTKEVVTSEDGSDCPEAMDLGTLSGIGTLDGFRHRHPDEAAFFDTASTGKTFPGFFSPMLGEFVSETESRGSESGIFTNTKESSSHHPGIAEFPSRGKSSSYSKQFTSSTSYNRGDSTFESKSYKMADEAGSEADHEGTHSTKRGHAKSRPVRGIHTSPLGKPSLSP
T2 sequence (P02675 31-491): T1 sequence (P02675 31-491)
T2 sequence (P02679 27-437 isoform P02679-2 limits assumed): T1 sequence (P02679 27-437 isoform P02679-2 limits assumed)
The experiment is described as follows: FIATA optimization: turbidity in dependence of vancomycin concentration. How it is done:
50 μl P-Pool or 1:2 or 1:4 diluted (in 6% BSA-PBS) P-Pool were incubated with 50 μl 0-6.8 mM vancomycin in PBS. The turbidity increase at 405 nm was determined after 1 min (RT). 25 μl Fbgen-Pool (300% of norm; 8.4 g/l) were incubated with 125 μl 0.55 mM, 1.1 mM, or 2.2 mM vancomycin in PBS for 1 min (RT). Then the turbidity increase at 405 nm was determined.

Experiment [3] deals with β2 fraction (fibrinogen) of plasma. In words: Electrophoresis of plasma that had been incubated with vancomycin. Here is the method:
950 μl P-Pool were incubated with 50 μl 0-200 mM (0-10 mM final conc.) vancomycin for 5 min (RT). Then electrophoreses of the samples and of the solubilized precipitate of 2.10. were performed and the total protein concentrations in the treated samples were determined.

This note sets out measurements from patent US7741124B2, “Detection procedures for fibrinogen and/or fibrinogen derivatives” (priority 2003, dated 2010).

`CN[C@H](CC(C)C)C(=O)N[C@H]1C(=O)N[C@@H](CC(N)=O)C(=O)N[C@H]2C(=O)N[C@H]3C(=O)N[C@H](C(=O)N[C@H](C(=O)O)c4cc(O)cc(O)c4-c4cc3ccc4O)[C@H](O)c3ccc(c(Cl)c3)Oc3cc2cc(c3O[C@@H]2O[C@H](CO)[C@@H](O)[C@H](O)[C@H]2O[C@H]2C[C@](C)(N)[C@H](O)[C@H](C)O2)Oc2ccc(cc2Cl)[C@H]1O` [vancomycin]: the IC50 (in general, the concentration at which inhibition is half-maximal) in experiment [1] was ~1 mM. Moreover, the “fibrinogen concentration at saturation of turbidity increase” value in experiment [2] (68.8 μmoles of vancomycin given to 25 μl 300% Fbgen-Pool) was “about 4 g/l”; in experiment [2] (137.5-275 μmoles of vancomycin), 6 to 8 g/L. In addition, the “own turbidity at 405 nm” value in experiment [2] (4.4 mM vancomycin in PBS, 0% fibrinogen standard in BSA) is given as < 50 mA. For the same molecule, the “stability of the turbidity increase” value in experiment [2] (vancomycin in plasma, RT) was “at least 10 min”. Moreover, the β2 fraction in experiment [3] (0.29 mM vancomycin) was 10.6%; in experiment [3] (0.44 mM vancomycin), 10.4%; in experiment [3] (0.66 mM vancomycin), 8.0%; in experiment [3] (0.99 mM vancomycin), 6.4%; in experiment [3] (1.48 mM vancomycin) it was 5.2%; in experiment [3] (2.22 mM vancomycin), 5.5%. Further, the β2 fraction in experiment [3] (5 mM vancomycin) and in experiment [3] (10 mM vancomycin) was 0% each time.
